Test results as given in patent publication US6403531B1, “Herbicidal synergistic composition and method of weed control” (Syngenta Crop Protection, inc., priority 1997, dated 2002).

Tests used:
Type in all cases: in vivo
Digitaria = assay: Post-emergence herbicidal action
From the text: (§1) A synergistic effect exists whenever the action of the active ingredient combination I and II, III, IV, V, VI, VII, VIII, IX or X is greater than the sum of the actions of the active ingredients applied individually. The herbicidal action to be expected, We, for a given combination of two herbicides can be calculated as follows (see COLBY, S. R. “Calculating synergistic and antagonistic response of herbicide combinations”. Weeds 15, pages 20-22; 1967):
(§2) We=expected herbicidal action (% herbicidal action in comparison with untreated control) after treatment with the compounds of formula I and II, III, IV, V, VI, VII, VIII, IX or X at a rate of application of p+q kg of active ingredient per hectare.
(§3) The test plants are raised in plastics pots under greenhouse conditions as far as the 2- to 3-leaf stage. A standard soil is used as the cultivation substrate. At the 2- to 3-leaf stage, the herbicides are applied individually and as mixtures to the test plants. The test compounds are applied in the form of an aqueous suspension in 500 l of water/ha. The rates of application depend on the optimum concentrations determined under field conditions and greenhouse conditions. Evaluation of the tests is made after 11 and 22 days (DAA=day after application) in % action. 100% denotes that the plants have died, 0% denotes no phytotoxic action.

Abutilon [1] = assay: Post-emergence herbicidal action
From the text: as §1, §2, §3

Sorghum = assay: Post-emergence herbicidal action
From the text: as §1, §2, §3

Cyperus = assay: Herbicidal action
Solanum = assay: Post-emergence herbicidal action
From the text: as §1, §2, §3

Sorghum hal. = assay: Herbicidal action; conditions: titled pre-emergence (under Example B2)
Xanthium = assay: Pre-emergence herbicidal action
From the text: as §1, §2
(§4) Monocotyledonous and dicotyledonous weeds and cultivated plants are sown in standard soil in plastics pots. Immediately after sowing, the test compounds are applied as an aqueous suspension (500 l of water/ha). The rates of application depend on the optimum concentrations determined under field conditions and greenhouse conditions. Evaluation of the tests is made after 15 and 27 days (DAA=day after application) in % action. 100% denotes that the plants have died, 0% denotes no phytotoxic action.

Cassia sp. = assay: Post-emergence herbicidal action
From the text: as §1, §2, §3

cotton = assay: Pre-emergence herbicidal action (cultivated plant)
From the text: as §1, §2, §4

Abutilon [2] = assay: Pre-emergence herbicidal action
From the text: as §1, §2, §4

Sesbania [3] = assay: Pre-emergence herbicidal action
From the text: as §1, §2, §4

Solanum nigrum = assay: Herbicidal action; conditions: post-emergence
Sesbania [4] = assay: Post-emergence herbicidal action
From the text: as §1, §2, §3

Compound: CP(=O)(O)CCC(N)C(=O)O (centres unmarked) [glufosinate]
- herbicidal action on Digitaria (Digitaria; DAA 22, 250 g/ha): 75%
- herbicidal action on Abutilon (Abutilon [1]; DAA 22, 250 g/ha): 55%
- herbicidal action on Sorghum (Sorghum; DAA 22, 250 g/ha): 85%
- herbicidal action on Cyperus (Cyperus; post-emergence, DAA 22, 250 g/ha): 35%

Compound: CN(C)C(=O)Nc1cccc(C(F)(F)F)c1 [fluometuron]
- herbicidal action on Cyperus (Cyperus; titled pre-emergence (under Example B2), DAA 11, 250 g/ha): 0%
- herbicidal action on Cyperus (Cyperus; titled pre-emergence (under Example B2), DAA 11, 500 g/ha): 25%
- herbicidal action on Cyperus (Cyperus; titled pre-emergence (under Example B2), DAA 11, 1000 g/ha): 20%

Compound: N#Cc1cc(Br)c(O)c(Br)c1 [bromoxynil, bromoxinil]
- herbicidal action on Solanum (Solanum; DAA 11, 500 g/ha): 35%
- herbicidal action on Solanum (Solanum; DAA 11, 1000 g/ha): 40%

Compound: CCc1cccc(C)c1N(C(=O)CCl)C(C)COC (centres unmarked) [metolachlor]
- herbicidal action on Sorghum hal. (Sorghum hal.; DAA 22, 375 g/ha): 0%
- herbicidal action on Sorghum hal. (Sorghum hal.; DAA 22, 750 g/ha): 0%
- herbicidal action on Sorghum hal. (Sorghum hal.; DAA 22, 1500 g/ha): 0%

Compound: CC1(C)CON(Cc2ccccc2Cl)C1=O [clomazone]
- herbicidal action on Xanthium (Xanthium; DAA 15, 125 g/ha): 10%
- herbicidal action on Xanthium (Xanthium; DAA 15, 250 g/ha): 25%
- herbicidal action on Xanthium (Xanthium; DAA 15, 500 g/ha): 60%

Compound: COc1cc(OC)nc(Sc2cccc(Cl)c2C(=O)[O-])n1.[Na+] [pyrithiobac, pyrithiobac-sodium]
- herbicidal action on Cassia sp. (Cassia sp.; DAA 11, 25 g/ha): 50%
- herbicidal action on Cassia sp. (Cassia sp.; DAA 11, 50 g/ha): 80%
- herbicidal action on Cassia sp. (Cassia sp.; DAA 11, 100 g/ha): 70%

Compound: CNc1cnn(-c2cccc(C(F)(F)F)c2)c(=O)c1Cl [norflurazon]
- herbicidal action on cotton (damage) (cotton; DAA 27, 250 g/ha): 0%
- herbicidal action on cotton (damage) (cotton; DAA 27, 500 g/ha): 0%
- herbicidal action on Abutilon (Abutilon [2]; DAA 27, 250 g/ha): 60%
- herbicidal action on Abutilon (Abutilon [2]; DAA 27, 500 g/ha): 60%
- herbicidal action on Sesbania (Sesbania [3]; DAA 27, 250 g/ha): 10%
- herbicidal action on Sesbania (Sesbania [3]; DAA 27, 500 g/ha): 30%
- herbicidal action on Xanthium (Xanthium; DAA 27, 250 g/ha): 10%
- herbicidal action on Xanthium (Xanthium; DAA 27, 500 g/ha): 35%

Compound: CCC(CC)Nc1c([N+](=O)[O-])cc(C)c(C)c1[N+](=O)[O-] [pendimethalin]
- herbicidal action on Xanthium (Xanthium; DAA 15, 250 g/ha): 0%
- herbicidal action on Xanthium (Xanthium; DAA 15, 500 g/ha): 0%
- herbicidal action on Xanthium (Xanthium; DAA 15, 1000 g/ha): 0%

Compound: CSc1nc(NC(C)C)nc(NC(C)C)n1 [prometryn]
- herbicidal action on Solanum nigrum (Solanum nigrum; DAA 22, 250 g/ha): 0%
- herbicidal action on Solanum nigrum (Solanum nigrum; DAA 22, 500 g/ha): 0%
- herbicidal action on Solanum nigrum (Solanum nigrum; DAA 22, 1000 g/ha): 20%
- herbicidal action on Sesbania (Sesbania [3]; DAA 15, 250 g/ha): 10%
- herbicidal action on Xanthium (Xanthium; DAA 15, 250 g/ha): 0%

Compound: CCc1cccc(C)c1N(C(=O)CCl)[C@@H](C)COC [α-metolachlor]
- herbicidal action on Cassia sp. (Cassia sp.; DAA 11, 250 g/ha): 0%
- herbicidal action on Cassia sp. (Cassia sp.; DAA 11, 500 g/ha): 0%
- herbicidal action on Cassia sp. (Cassia sp.; DAA 11, 1000 g/ha): 0%
- herbicidal action on Sesbania (Sesbania [4]; DAA 11, 250 g/ha): 0%
- herbicidal action on Sesbania (Sesbania [4]; DAA 11, 500 g/ha): 0%
- herbicidal action on Sesbania (Sesbania [4]; DAA 11, 1000 g/ha): 0%

Compound: COc1cc(OC)nc(NC(=O)NOS(=O)c2ncccc2OCC(F)(F)F)n1.[Na+] (centres unmarked) [compound of formula I]
- herbicidal action on cotton (damage) (cotton; DAA 27, 3.75 g/ha): 10%
- herbicidal action on Cassia sp. (Cassia sp.; DAA 11, 1.88 g/ha): 70%
- herbicidal action on Digitaria (Digitaria; DAA 22, 1.88 g/ha): 15%
- herbicidal action on Abutilon (Abutilon [1]; DAA 22, 1.88 g/ha): 55%
- herbicidal action on Solanum (Solanum; DAA 11, 7.5 g/ha): 20%
- herbicidal action on Sesbania (Sesbania [4]; DAA 11, 1.88 g/ha): 70%
- herbicidal action on Sorghum (Sorghum; DAA 22, 1.88 g/ha): 75%
- herbicidal action on Sorghum hal. (Sorghum hal.; DAA 22, 1.88 g/ha): 75%
- herbicidal action on Solanum nigrum (Solanum nigrum; DAA 22, 1.88 g/ha): 0%
- herbicidal action on Solanum nigrum (Solanum nigrum; DAA 22, 3.75 g/ha): 0%
- herbicidal action on Solanum nigrum (Solanum nigrum; DAA 22, 7.5 g/ha): 15%
- herbicidal action on Cyperus (Cyperus; post-emergence, DAA 22, 1.88 g/ha): 70%
- herbicidal action on Cyperus (Cyperus; titled pre-emergence (under Example B2), DAA 11, 3.75 g/ha): 50%
- herbicidal action on Abutilon (Abutilon [2]; DAA 27, 3.75 g/ha): 50%
- herbicidal action on Sesbania (Sesbania [3]; DAA 15, 3.75 g/ha): 35%
- herbicidal action on Sesbania (Sesbania [3]; DAA 27, 3.75 g/ha): 25%
- herbicidal action on Xanthium (Xanthium; DAA 15, 3.75 g/ha): 85%
- herbicidal action on Xanthium (Xanthium; DAA 15, 7.5 g/ha): 90%
- herbicidal action on Xanthium (Xanthium; DAA 27, 3.75 g/ha): 96%
